This is an account of results in US20230158025A1 (UNIVERSITY OF UTAH RESEARCH FOUNDATION, priority 2020, published 2023).

For one data set, the target named is recombinant human GALK1 (Homo sapiens, UniProt P51570). As to the kind of experiment: hGALK1 biochemical activity assay (Kinase-Glo Plus, ATP depletion). The method, boiled down:
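Turnover is measured as ATP depletion by Kinase-Glo Plus luminescence after a 1 h room-temperature reaction. Compounds span 11 concentrations, 57.4 μM–0.97 nM, in final 20 mM HEPES pH 8.0 with 5 mM MgCl2. The substrate solution held 35 μM ATP; the added solution held 5 nM human or mouse GALK1 and 100 μM galactose.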
(In general: In Kinase-Glo more light means more ATP remaining.)

Data set [1] in a line: rat microsomal stability (RLM).
Data set [2] in a line: aqueous kinetic solubility.
A further data set addresses recombinant mouse GALK1 (Mus musculus, UniProt Q9R0N0). The experiment in a line: mGALK1 biochemical activity assay (Kinase-Glo Plus, ATP depletion). The method, boiled down:
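Recombinant GALK1 (5 nM) with 100 μM galactose; GALK1 turnover read as ATP depletion by Kinase-Glo Plus luminescence. Reaction ran 1 h at room temperature before detection reagent was added.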

Where [3] appears, read: Tables 2-15, 35 μM ATP, 100 μM galactose, 1 h, bracketed figure after some values (e.g. −1.2) is undefined and not reported, read-out: hGALK IC50.
Where [4] appears, read: recombinant human GALK1, Kinase-Glo Plus ATP depletion, read-out: hGALK.
The mark [5] stands for this setting: Tables 2-15, 35 μM ATP, 100 μM galactose, 1 h, bracketed figure after some values is undefined and not reported, read-out: mGALK IC50.
[6] abbreviates: recombinant mouse GALK1, Kinase-Glo Plus ATP depletion, read-out: mGALK.
[7] abbreviates: Tables 2-15, 35 μM ATP, 100 μM galactose, 1 h, bracketed figure after some values is undefined and not reported.
Setting [8] is: recombinant mouse GALK1, Kinase-Glo Plus ATP depletion.

Like-named read-outs stand apart in the source and are kept apart here.

Chain of recombinant mouse GALK1 (Q9R0N0 whole entry): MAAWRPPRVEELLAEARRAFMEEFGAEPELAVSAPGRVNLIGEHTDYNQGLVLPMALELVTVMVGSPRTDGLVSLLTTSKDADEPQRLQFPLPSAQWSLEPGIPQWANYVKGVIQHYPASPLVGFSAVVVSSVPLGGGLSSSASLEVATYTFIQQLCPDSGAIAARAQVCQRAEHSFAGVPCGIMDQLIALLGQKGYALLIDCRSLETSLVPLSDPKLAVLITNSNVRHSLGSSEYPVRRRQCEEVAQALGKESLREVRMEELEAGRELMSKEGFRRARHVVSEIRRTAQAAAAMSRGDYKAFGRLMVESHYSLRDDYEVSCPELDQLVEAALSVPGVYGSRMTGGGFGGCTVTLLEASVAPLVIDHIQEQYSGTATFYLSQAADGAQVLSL
Chain of recombinant human GALK1 (P51570 whole entry): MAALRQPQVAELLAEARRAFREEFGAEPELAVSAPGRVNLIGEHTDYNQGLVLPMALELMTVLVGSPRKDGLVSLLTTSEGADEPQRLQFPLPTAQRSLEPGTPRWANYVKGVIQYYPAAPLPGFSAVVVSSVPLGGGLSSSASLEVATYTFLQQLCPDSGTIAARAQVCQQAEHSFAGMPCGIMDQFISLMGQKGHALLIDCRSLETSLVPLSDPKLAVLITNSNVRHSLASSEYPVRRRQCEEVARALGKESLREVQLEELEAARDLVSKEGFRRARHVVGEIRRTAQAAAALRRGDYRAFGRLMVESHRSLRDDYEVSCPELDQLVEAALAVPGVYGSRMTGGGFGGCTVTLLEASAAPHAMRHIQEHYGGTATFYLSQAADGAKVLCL

In the case of `CC1=C(C(=O)Nc2cc(C(=O)O)ccn2)C(c2ccc(C)cc2Cl)N=C(Nc2nc3cnccc3o2)N1` (stereo not shown) [Compound 106, 2-(4-(2-chloro-4-methylphenyl)-6-methyl-2-(oxazolo[4,5-c]pyridin-2-ylamino)-1,4-dihydropyrimidine-5-carboxamido)isonicotinic acid], the IC50 came to 0.86 µM on recombinant human GALK1 (setting [3]), 0.86 µM on recombinant human GALK1 (setting [4]), 6.85 µM at recombinant mouse GALK1 (setting [5]) and 6.85 µM at recombinant mouse GALK1 (setting [6]). Further, the “Metab. Stabil. (m)” value in data set [1] (microsomal half-life) is above 30 m. In addition, the “Sol.” value in data set [2] is above 51 µg/mL. In addition, the “Perm. (1 × 10^−6 cm/sec)” value in the data set “PAMPA permeability” is reported as <1 1 × 10^−6 cm/sec.

Regarding `CC1=C(C(=O)NCc2cnn(C)c2)C(c2ccc(C)cc2Cl)N=C(Nc2nc3cccnc3o2)N1` (stereo not shown) [Compound 107, 4-(2-chloro-4-methylphenyl)-6-methyl-N-((1-methyl-1H-pyrazol-4-yl)methyl)-2-(oxazolo[5,4-b]pyridin-2-ylamino)-1,4-dihydropyrimidine-5-carboxamide], the IC50 at recombinant human GALK1 (setting [3]) and at recombinant human GALK1 (setting [4]) was 17.2 µM in each case. In addition, the “Metab. Stabil. (m)” value in data set [1] (microsomal half-life) turned out to be 3.664 m. Besides, the “Sol.” value in data set [2] is 4.8 µg/mL. In addition, the “Perm. (1 × 10^−6 cm/sec)” value in the data set “PAMPA permeability” is given as 355.44 1 × 10^−6 cm/sec. Also, on recombinant mouse GALK1 (setting [7]), the “mGALK IC50” value is “inactive”. For the same compound, the “mGALK (μM)” value at recombinant mouse GALK1 (setting [8]) is on record as “in- active”.

Regarding `CC1=C(C(=O)Nc2cc(C(=O)O)ccn2)C(c2ccc(C)cc2Cl)N=C(Nc2nc3cccnc3o2)N1` (stereo not shown) [Compound 108, 2-(4-(2-chloro-4-methylphenyl)-6-methyl-2-(oxazolo[5,4-b]pyridin-2-ylamino)-1,4-dihydropyrimidine-5-carboxamido)isonicotinic acid], the IC50 at recombinant human GALK1 (setting [3]) and on recombinant human GALK1 (setting [4]) was 12.2 µM in each case. For the same compound, the “Metab. Stabil. (m)” value in data set [1] (microsomal half-life) is listed as above 30 m. Also, the “Sol.” value in data set [2] is above 51 µg/mL. For the same compound, the “Perm. (1 × 10^−6 cm/sec)” value in “PAMPA permeability” is recorded as <1 1 × 10^−6 cm/sec. Also, on recombinant mouse GALK1 (setting [7]), the “mGALK IC50” value is “inactive”. The “mGALK (μM)” value on recombinant mouse GALK1 (setting [8]) is reported as “in- active”.

For the compound `CC1=C(C(=O)Nc2cc(C(=O)O)ccn2)C(c2ccc(C)cc2Cl)N=C(Nc2nc3c(o2)CCCC3)N1` (stereo not shown) [Compound 109, 2-(4-(2-chloro-4-methylphenyl)-6-methyl-2-((4,5,6,7-tetrahydrobenzo[d]oxazol-2-yl)amino)-1,4-dihydropyrimidine-5-carboxamido)isonicotinic acid], the IC50 at recombinant human GALK1 (setting [3]) stood at 3.06 µM; on recombinant human GALK1 (setting [4]), 3.06 µM; on recombinant mouse GALK1 (setting [5]), 4.32 µM; on recombinant mouse GALK1 (setting [6]), 4.32 µM. Further, in data set [1] (microsomal half-life), the “Metab. Stabil. (m)” value is reported as above 30 m. The “Sol.” value in data set [2] is above 52 µg/mL. Moreover, the “Perm. (1 × 10^−6 cm/sec)” value in the data set “PAMPA permeability” is <1.8 1 × 10^−6 cm/sec.

`CC1=C(C(=O)NCc2cnn(Cc3ccccc3)c2)C(c2ccc(C)cc2Cl)N=C(Nc2nc3ccc(F)cc3o2)N1` (stereo not shown) [Compound 110, N-((1-benzyl-1H-pyrazol-4-yl)methyl)-4-(2-chloro-4-methylphenyl)-2-((6-fluorobenzo[d]oxazol-2-yl)amino)-6-methyl-1,4-dihydropyrimidine-5-carboxamide]: the IC50 at recombinant human GALK1 (setting [3]) was 1.72 µM; on recombinant human GALK1 (setting [4]), 1.72 µM; on recombinant mouse GALK1 (setting [5]), 5.44 µM; on recombinant mouse GALK1 (setting [6]), 5.44 µM. Moreover, in data set [1] (microsomal half-life), the “Metab. Stabil. (m)” value is listed as 2.74 m. Also, the “Sol.” value in data set [2] is below 1 µg/mL. For the same compound, the “Perm. (1 × 10^−6 cm/sec)” value in the data set “PAMPA permeability” is 159.0 1 × 10^−6 cm/sec.

Regarding `CC1=C(C(=O)NCc2c(C)nn(C)c2C)C(c2ccc(C)cc2Cl)N=C(Nc2nc3ccc(F)cc3o2)N1` (stereo not shown) [Compound 111, 4-(2-chloro-4-methylphenyl)-2-((6-fluorobenzo[d]oxazol-2-yl)amino)-6-methyl-N-((1,3,5-trimethyl-1H-pyrazol-4-yl)methyl)-1,4-dihydropyrimidine-5-carboxamide], the IC50 at recombinant human GALK1 (setting [3]) is 3.85 µM; on recombinant human GALK1 (setting [4]), 3.85 µM; at recombinant mouse GALK1 (setting [5]), 4.85 µM; on recombinant mouse GALK1 (setting [6]), 4.85 µM. Besides, in data set [1] (microsomal half-life), the “Metab. Stabil. (m)” value turned out to be 2.66 m. Further, the “Sol.” value in data set [2] was below 1 µg/mL. Besides, in the data set “PAMPA permeability”, the “Perm. (1 × 10^−6 cm/sec)” value is 16.91 1 × 10^−6 cm/sec.

With `CCn1cc(CNC(=O)C2=C(C)NC(Nc3nc4ccc(F)cc4o3)=NC2c2ccc(C)cc2Cl)cn1` (stereo not shown) [Compound 112, 4-(2-chloro-4-methylphenyl)-N-((1-ethyl-1H-pyrazol-4-yl)methyl)-2-((6-fluorobenzo[d]oxazol-2-yl)amino)-6-methyl-1,4-dihydropyrimidine-5-carboxamide], the IC50 at recombinant human GALK1 (setting [3]) was 1.22 µM; at recombinant human GALK1 (setting [4]), 1.22 µM; at recombinant mouse GALK1 (setting [5]), 6.85 µM; on recombinant mouse GALK1 (setting [6]) it was 6.85 µM. Further, the “Metab. Stabil. (m)” value in data set [1] (microsomal half-life) came to 9.22 m. In data set [2], the “Sol.” value was below 1 µg/mL. The “Perm. (1 × 10^−6 cm/sec)” value in the data set “PAMPA permeability” is <21.9 1 × 10^−6 cm/sec.

Turning to `CC1=C(C(=O)NCc2c(C)nn(C)c2C)C(c2ccc(C)cc2Cl)N=C(Nc2nc3cccc(N)c3o2)N1` (stereo not shown) [Compound 113, 2-((7-aminobenzo[d]oxazol-2-yl)amino)-4-(2-chloro-4-methylphenyl)-6-methyl-N-((1,3,5-trimethyl-1H-pyrazol-4-yl)methyl)-1,4-dihydropyrimidine-5-carboxamide], the IC50 was found to be 1.22 µM on recombinant human GALK1 (setting [3]), 1.22 µM at recombinant human GALK1 (setting [4]), 6.85 µM at recombinant mouse GALK1 (setting [5]) and 6.85 µM on recombinant mouse GALK1 (setting [6]). Besides, the “Metab. Stabil. (m)” value in data set [1] (microsomal half-life) was determined as 2.369 m. For the same compound, the “Sol.” value in data set [2] stood at 12.0 µg/mL. The “Perm. (1 × 10^−6 cm/sec)” value in “PAMPA permeability” is on record as 127.92 1 × 10^−6 cm/sec.

Regarding `CC1=C(C(=O)NCc2cnn(Cc3ccccc3)c2)C(c2ccc(C)cc2Cl)N=C(Nc2nc3cccc(N)c3o2)N1` (stereo not shown) [Compound 114, 2-((7-aminobenzo[d]oxazol-2-yl)amino)-N-((1-benzyl-1H-pyrazol-4-yl)methyl)-4-(2-chloro-4-methylphenyl)-6-methyl-1,4-dihydropyrimidine-5-carboxamide], the IC50 was 0.39 µM on recombinant human GALK1 (setting [3]), 0.39 µM on recombinant human GALK1 (setting [4]), 5.44 µM on recombinant mouse GALK1 (setting [5]) and 5.44 µM at recombinant mouse GALK1 (setting [6]). Besides, the “Metab. Stabil. (m)” value in data set [1] (microsomal half-life) came out at 6.732 m. For the same compound, the “Sol.” value in data set [2] is below 1 µg/mL. The “Perm. (1 × 10^−6 cm/sec)” value in the data set “PAMPA permeability” was 103.8 1 × 10^−6 cm/sec.

As for `CC1=C(C(=O)NCc2cnn(C)c2)[C@H](c2ccc(C)cc2Cl)N=C(Nc2nc3cccc(N)c3o2)N1` [Compound 115, (R)-2-((7-aminobenzo[d]oxazol-2-yl)amino)-4-(2-chloro-4-methylphenyl)-6-methyl-N-((1-methyl-1H-pyrazol-4-yl)methyl)-1,4-dihydropyrimidine-5-carboxamide], the values for the IC50 at recombinant human GALK1 (setting [4]) and at recombinant mouse GALK1 (setting [6]) were 0.13 µM and 1.58 µM, respectively. Further, the “Metab. Stabil. (m)” value in data set [1] (microsomal half-life) came to 18.91 m. In addition, in data set [2], the “Sol.” value amounted to 17.14 µg/mL. The “Perm. (1 × 10^−6 cm/sec)” value in “PAMPA permeability” is on record as 416.8 1 × 10^−6 cm/sec.

For the compound `CC1=C(C(=O)NCc2cnn(C)c2)[C@@H](c2ccc(C)cc2Cl)N=C(Nc2nc3cccc(N)c3o2)N1` [Compound 116, (S)-2-((7-aminobenzo[d]oxazol-2-yl)amino)-4-(2-chloro-4-methylphenyl)-6-methyl-N-((1-methyl-1H-pyrazol-4-yl)methyl)-1,4-dihydropyrimidine-5-carboxamide], the values for the IC50 at recombinant human GALK1 (setting [4]) and at recombinant mouse GALK1 (setting [6]) were 12.2 µM and 30.6 µM, respectively. Besides, in data set [1] (microsomal half-life), the “Metab. Stabil. (m)” value was 7.868 m. Moreover, in data set [2], the “Sol.” value was 21.9 µg/mL. Besides, the “Perm. (1 × 10^−6 cm/sec)” value in “PAMPA permeability” is on record as 326.9 1 × 10^−6 cm/sec.

As to `CCn1cc(CNC(=O)C2=C(C)NC(Nc3nc4cccc(N)c4o3)=NC2c2ccc(C)cc2Cl)cn1` (stereo not shown) [Compound 117, 2-((7-aminobenzo[d]oxazol-2-yl)amino)-4-(2-chloro-4-methylphenyl)-6-methyl-N-((1-ethyl-1H-pyrazol-4-yl)methyl)-1,4-dihydropyrimidine-5-carboxamide], the IC50 amounted to 0.17 µM on recombinant human GALK1 (setting [4]) and 3.06 µM at recombinant mouse GALK1 (setting [5]). For the same compound, the “Metab. Stabil. (m)” value in data set [1] (microsomal half-life) is 11.3 m. Moreover, in data set [2], the “Sol.” value worked out at 2.43 µg/mL. Also, in “PAMPA permeability”, the “Perm. (1 × 10^−6 cm/sec)” value is 360.4 1 × 10^−6 cm/sec.

Regarding `CC1=C(C(=O)NCc2cnn(C)c2)C(c2ccc(F)cc2Cl)N=C(Nc2nc3cccc(N)c3o2)N1` (stereo not shown) [Compound 119, 2-((7-aminobenzo[d]oxazol-2-yl)amino)-4-(2-chloro-4-fluorophenyl)-N-((1-methyl-1H-pyrazol-4-yl)methyl)-6-methyl-1,4-dihydropyrimidine-5-carboxamide], the IC50 is 0.68 µM on recombinant human GALK1 (setting [4]) and 6.85 µM on recombinant mouse GALK1 (setting [6]). In addition, the “Metab. Stabil. (m)” value in data set [1] (microsomal stability half-life) is recorded as 29.59 m. Besides, the “Sol.” value in data set [2] (aqueous kinetic solubility) was 49.6 µg/mL. The “Perm. (1 × 10^−6 cm/sec)” value in the data set “PAMPA permeability” (PAMPA) is listed as 17.14 1 × 10^−6 cm/sec.

Take `CCn1cc(CNC(=O)C2=C(C)NC(Nc3nc4cccc(N)c4o3)=NC2c2ccc(Cl)cc2Cl)cn1` (stereo not shown) [Compound 120, 2-((7-aminobenzo[d]oxazol-2-yl)amino)-4-(2,4-dichlorophenyl)-N-((1-ethyl-1H-pyrazol-4-yl)methyl)-6-methyl-1,4-dihydropyrimidine-5-carboxamide]: the results for the IC50 on recombinant human GALK1 (setting [4]) and on recombinant mouse GALK1 (setting [6]) were 0.48 µM and 8.63 µM, respectively. Also, the “Metab. Stabil. (m)” value in data set [1] (microsomal stability half-life) was determined as 14.14 m. Moreover, the “Sol.” value in data set [2] (aqueous kinetic solubility) was determined as 4.6 µg/mL. Further, in “PAMPA permeability” (PAMPA), the “Perm. (1 × 10^−6 cm/sec)” value is 289.5 1 × 10^−6 cm/sec.
